Calls of active or inactive are those of the source.
How the values were obtained:
[1] = molecular target: Intestinal-type alkaline phosphatase (Mus musculus, UniProt P24822); assay: PubChem AID 488874; format: functional
[2] = molecular target: T1, Intestinal-type alkaline phosphatase (Homo sapiens, UniProt P09923); assay: human IAP inhibitors, dose response, biochemical, luminescent, uHTS hits, set 2 (AID 488793); format: functional
[3] = molecular target: T1, Intestinal-type alkaline phosphatase; assay: Dose Response confirmation of uHTS hits from a small molecule inhibitors of human intestinal alkaline phosphatase via a luminescent assay. [Related pubchem assays (depositor defined):AID2544, AID2574]; format: functional
[4] = molecular target: Nonstructural protein 1 (Influenza A virus, UniProt Q194T2); format: functional, Influenza A virus (A/California/07/2009(H1N1))
[5] = molecular target: T2, Alkaline phosphatase, tissue-nonspecific isozyme (Homo sapiens, UniProt P05186); assay: inhibition of tissue-nonspecific alkaline phosphatase – biochemical, dose response (AID 488882); format: functional
T2 sequence (P05186 whole entry): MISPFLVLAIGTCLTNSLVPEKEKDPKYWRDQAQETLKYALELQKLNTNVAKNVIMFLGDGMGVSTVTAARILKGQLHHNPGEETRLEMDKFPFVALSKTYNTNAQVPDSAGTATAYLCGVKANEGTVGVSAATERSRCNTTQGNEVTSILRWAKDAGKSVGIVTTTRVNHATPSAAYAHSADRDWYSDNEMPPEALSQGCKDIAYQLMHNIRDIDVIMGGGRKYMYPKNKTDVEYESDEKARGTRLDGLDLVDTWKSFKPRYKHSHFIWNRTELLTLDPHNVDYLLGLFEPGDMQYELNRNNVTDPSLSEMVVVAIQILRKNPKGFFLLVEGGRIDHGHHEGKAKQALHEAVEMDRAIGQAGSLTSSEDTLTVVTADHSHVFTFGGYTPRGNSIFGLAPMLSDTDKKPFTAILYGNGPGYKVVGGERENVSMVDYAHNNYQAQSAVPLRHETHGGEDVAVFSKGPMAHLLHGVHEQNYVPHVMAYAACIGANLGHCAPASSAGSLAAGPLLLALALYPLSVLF

[6] = molecular target: T3, Protein RecA (Mycobacterium tuberculosis, UniProt P9WHJ3); assay: Fluorescence Cell-Free Homogeneous Dose Retest to Identify Inhibitors of RecA-Intein Splicing Activity. [Related pubchem assays (depositor defined):AID2097, AID2223, AID489010, AID492950]; format: functional
T3 sequence (P9WHJ3 whole entry): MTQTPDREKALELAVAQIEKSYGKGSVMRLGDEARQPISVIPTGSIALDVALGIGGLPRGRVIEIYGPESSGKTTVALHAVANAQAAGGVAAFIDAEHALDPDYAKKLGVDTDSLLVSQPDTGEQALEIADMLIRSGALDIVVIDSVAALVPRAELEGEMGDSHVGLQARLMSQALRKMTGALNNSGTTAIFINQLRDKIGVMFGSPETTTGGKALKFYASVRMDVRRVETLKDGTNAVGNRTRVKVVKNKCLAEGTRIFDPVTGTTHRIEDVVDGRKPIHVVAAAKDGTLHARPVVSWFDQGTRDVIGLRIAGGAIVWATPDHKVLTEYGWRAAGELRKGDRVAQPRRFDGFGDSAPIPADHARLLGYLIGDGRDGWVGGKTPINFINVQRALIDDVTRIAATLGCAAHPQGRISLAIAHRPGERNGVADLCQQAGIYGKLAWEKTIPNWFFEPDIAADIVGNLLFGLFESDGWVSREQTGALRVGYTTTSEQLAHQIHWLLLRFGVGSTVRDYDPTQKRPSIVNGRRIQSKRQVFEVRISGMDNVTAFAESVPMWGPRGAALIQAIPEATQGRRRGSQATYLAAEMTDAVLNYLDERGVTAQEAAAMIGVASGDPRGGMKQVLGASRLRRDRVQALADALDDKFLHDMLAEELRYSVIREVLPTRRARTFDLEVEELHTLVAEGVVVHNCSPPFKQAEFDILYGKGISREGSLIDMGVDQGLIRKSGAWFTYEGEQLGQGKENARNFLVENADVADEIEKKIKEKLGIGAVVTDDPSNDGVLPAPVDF

[7] = molecular target: T4, Protein skinhead-1 (Caenorhabditis elegans, UniProt P34707); format: functional
T4 sequence (P34707 whole entry): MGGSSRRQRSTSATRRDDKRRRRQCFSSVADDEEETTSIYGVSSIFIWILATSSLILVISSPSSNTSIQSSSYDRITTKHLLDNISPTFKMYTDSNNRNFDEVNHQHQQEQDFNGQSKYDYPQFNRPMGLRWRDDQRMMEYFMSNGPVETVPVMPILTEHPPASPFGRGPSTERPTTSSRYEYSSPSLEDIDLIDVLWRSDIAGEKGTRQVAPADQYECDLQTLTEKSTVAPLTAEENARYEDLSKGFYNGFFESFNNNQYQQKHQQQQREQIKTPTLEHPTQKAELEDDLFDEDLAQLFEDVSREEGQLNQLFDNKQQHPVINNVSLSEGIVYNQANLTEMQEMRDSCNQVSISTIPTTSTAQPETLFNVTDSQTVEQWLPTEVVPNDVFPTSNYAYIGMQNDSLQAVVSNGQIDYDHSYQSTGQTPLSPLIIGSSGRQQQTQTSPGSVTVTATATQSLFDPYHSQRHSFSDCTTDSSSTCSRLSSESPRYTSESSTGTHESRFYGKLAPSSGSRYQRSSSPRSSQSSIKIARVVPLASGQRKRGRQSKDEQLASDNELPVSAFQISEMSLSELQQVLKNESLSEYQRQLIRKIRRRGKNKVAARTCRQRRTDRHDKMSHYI

[8] = growth induction of Burl-1 ts yeast mutant, dose response, counter-screen for SUMOylation pathway inhibitor project, whole organism, S. cerevisiae, luminescence (AID 463199); format: functional
[9] = activation of PKA-R1A holoenzyme dissociation, dose response, counter-screen for PKA-R2B activator project, biochemical, Cy5-IP20 fluorescence polarization, 1536-well, triplicate (AID 504896)
[10] = Fluorescence polarization-based biochemical high throughput dose response assay for activators of the Protein Kinase A-R2B (PKA-R2B) complex. [Related pubchem assays (depositor defined):AID504700, AID504704, AID504796, AID504797]
[11] = molecular target: T5, RNA-binding protein pos-1 (Caenorhabditis elegans, UniProt G5EF15); assay: inhibitors of POS-1/mex-3 RNA binding, dose response, biochemical, fluorescence polarization (AID 1964);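 note: purified POS-1 fused to maltose binding protein made in E. coli; potency of compounds blocking POS-1 binding to fluorescent RNA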
T5 sequence (G5EF15 whole entry): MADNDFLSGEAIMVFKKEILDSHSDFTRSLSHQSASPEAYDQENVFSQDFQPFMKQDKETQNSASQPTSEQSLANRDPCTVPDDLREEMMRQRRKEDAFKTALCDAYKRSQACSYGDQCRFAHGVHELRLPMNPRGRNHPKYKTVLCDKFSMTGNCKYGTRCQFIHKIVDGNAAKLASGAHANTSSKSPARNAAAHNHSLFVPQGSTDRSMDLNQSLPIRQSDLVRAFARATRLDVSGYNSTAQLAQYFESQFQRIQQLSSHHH

[12] = molecular target: T6, Zinc finger protein mex-5 (Caenorhabditis elegans, UniProt Q9XUB2); assay: MEX-5/TCR-2 RNA interaction inhibitors, dose response, biochemical, C. elegans, fluorescence polarization (AID 1960)
T6 sequence (Q9XUB2 whole entry): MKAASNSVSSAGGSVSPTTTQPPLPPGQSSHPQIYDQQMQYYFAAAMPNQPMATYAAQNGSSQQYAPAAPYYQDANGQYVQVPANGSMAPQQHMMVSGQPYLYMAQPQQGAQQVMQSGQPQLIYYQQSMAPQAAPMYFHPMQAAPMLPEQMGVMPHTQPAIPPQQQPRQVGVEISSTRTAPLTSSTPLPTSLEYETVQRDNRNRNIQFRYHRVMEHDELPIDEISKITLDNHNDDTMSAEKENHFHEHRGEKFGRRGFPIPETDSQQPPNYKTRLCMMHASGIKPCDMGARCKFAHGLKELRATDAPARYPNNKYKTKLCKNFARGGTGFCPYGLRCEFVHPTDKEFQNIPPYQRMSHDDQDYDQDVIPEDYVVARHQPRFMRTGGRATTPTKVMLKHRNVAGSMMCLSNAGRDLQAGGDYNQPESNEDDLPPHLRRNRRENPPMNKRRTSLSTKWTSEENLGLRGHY

[13] = molecular target: Keap1/Nrf2 (Homo sapiens, UniProt Q14145); assay: Keap1-Nrf2 protein-protein interaction inhibitors, dose response, biochemical, fluorescence polarization, cherry-picked samples (AID 588683)
[14] = molecular target: T7, Endoribonuclease toxin MazF (Escherichia coli K-12, UniProt P0AE70); assay: MazF toxin RNase activators, dose response, biochemical, fluorescence, single-stranded RNA substrate, uHTS hits (AID 588481); format: functional
[15] = molecular target: T7, Endoribonuclease toxin MazF; assay: fluorescent RNA oligo signal without MazF, dose response, counter-screen for MazEF activator project, biochemical, fluorescence, single-stranded RNase substrate (AID 588502); format: functional
[16] = system: HEK293; assay: cytotoxicity in HEK293T NF-kB-Luc cells, SAR follow-up, cytotoxicity control for NF-kB activator project, cell-based, resazurin fluorescence (AID 493251); format: functional; settings: Homo sapiens
[17] = system: Jurkat; assay: SAR Analysis of small molecule inhibitors of T-cell specific antigen receptor-induced NF-kB activation in a Jurkat cell line using a luminescence assay - Set 2. [Related pubchem assays (depositor defined):AID435003, AID435012, AID465]; format: functional, cell-based; settings: Homo sapiens
[18] = system: HEK293; assay: SAR Analysis of small molecule inhibitors of T-cell specific antigen receptor-induced NF-kB activation in a HEK-293T cell line using a luminescence assay - Set 2. [Related pubchem assays (depositor defined):AID435003, AID435012, AID489026]; format: functional, cell-based; settings: Homo sapiens
[19] = molecular target: T8, Short transient receptor potential channel 4 (Mus musculus, UniProt Q9QUQ5); assay: SAR Analysis for the identification of selective inhibits of the transient receptor potential cation channel C4 (TRPC4): Automated Electrophysiology_2. [Related pubchem assays (depositor defined):AID2256]; format: functional
T8 sequence (Q9QUQ5 whole entry): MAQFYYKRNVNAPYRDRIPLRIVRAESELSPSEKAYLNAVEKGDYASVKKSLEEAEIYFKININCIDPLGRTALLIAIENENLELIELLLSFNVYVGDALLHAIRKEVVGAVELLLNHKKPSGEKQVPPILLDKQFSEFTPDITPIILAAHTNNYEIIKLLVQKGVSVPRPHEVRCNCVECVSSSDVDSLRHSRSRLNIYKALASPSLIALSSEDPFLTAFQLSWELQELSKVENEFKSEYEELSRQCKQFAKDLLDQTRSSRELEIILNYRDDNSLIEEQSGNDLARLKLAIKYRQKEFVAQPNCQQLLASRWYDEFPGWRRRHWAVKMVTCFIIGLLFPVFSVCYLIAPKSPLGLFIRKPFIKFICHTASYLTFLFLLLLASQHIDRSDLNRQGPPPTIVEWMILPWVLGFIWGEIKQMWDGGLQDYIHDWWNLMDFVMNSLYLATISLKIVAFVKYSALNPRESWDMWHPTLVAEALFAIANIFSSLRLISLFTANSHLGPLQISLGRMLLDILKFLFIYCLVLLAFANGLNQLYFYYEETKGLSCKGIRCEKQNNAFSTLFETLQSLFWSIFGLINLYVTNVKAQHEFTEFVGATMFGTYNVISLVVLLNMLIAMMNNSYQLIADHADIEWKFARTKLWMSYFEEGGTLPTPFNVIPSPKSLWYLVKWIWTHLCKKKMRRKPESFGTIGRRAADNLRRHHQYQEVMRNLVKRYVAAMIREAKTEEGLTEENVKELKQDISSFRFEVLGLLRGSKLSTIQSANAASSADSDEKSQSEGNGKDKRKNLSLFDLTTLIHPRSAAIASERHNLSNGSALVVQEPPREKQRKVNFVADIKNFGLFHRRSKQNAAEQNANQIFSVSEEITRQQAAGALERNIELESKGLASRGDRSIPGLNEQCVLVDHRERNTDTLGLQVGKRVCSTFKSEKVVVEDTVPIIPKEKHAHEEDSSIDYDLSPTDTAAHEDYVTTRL

[20] = molecular target: T8, Short transient receptor potential channel 4; assay: TRPC4 inhibitor concentration-response, dose response, cell-based, HEK293 TRPC4/mu-opioid, DAMGO stimulus, Fluo-4 (AID 492994); format: functional
[21] = system: NIH3T3; assay: cytotoxicity in NIH-3T3 fibroblasts, dose response, cytotoxicity control for antifungal drug resistance project, cell-based, Alamar Blue, fluconazole, dry powder (AID 488809); format: functional; settings: Mus musculus
[22] = molecular target: Cytochrome P450 2C9 (Homo sapiens, UniProt P11712)
[23] = molecular target: Cytochrome P450 2D6 (Homo sapiens, UniProt P10635);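 note: CYP2D6 member of a cytochrome P450 panel assay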
Sequence of Cytochrome P450 2D6 (P10635 whole entry): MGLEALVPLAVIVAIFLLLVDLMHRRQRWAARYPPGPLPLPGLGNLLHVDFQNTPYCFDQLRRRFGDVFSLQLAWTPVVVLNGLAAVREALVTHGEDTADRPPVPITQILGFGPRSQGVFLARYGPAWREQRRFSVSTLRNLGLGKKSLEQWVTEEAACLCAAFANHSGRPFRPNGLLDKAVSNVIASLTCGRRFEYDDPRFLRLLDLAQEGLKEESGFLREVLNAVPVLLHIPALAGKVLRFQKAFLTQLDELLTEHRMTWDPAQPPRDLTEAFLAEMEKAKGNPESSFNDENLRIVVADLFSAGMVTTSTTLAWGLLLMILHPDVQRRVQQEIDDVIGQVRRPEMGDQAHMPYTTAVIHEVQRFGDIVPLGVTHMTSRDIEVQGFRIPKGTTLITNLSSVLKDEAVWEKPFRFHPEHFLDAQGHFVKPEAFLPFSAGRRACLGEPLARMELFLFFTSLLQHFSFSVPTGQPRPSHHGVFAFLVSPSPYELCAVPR

T7 sequence (P0AE70 whole entry): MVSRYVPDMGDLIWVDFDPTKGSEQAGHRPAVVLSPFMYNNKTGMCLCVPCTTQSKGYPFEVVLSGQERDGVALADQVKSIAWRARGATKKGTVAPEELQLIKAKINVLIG
T1 sequence (P09923 whole entry): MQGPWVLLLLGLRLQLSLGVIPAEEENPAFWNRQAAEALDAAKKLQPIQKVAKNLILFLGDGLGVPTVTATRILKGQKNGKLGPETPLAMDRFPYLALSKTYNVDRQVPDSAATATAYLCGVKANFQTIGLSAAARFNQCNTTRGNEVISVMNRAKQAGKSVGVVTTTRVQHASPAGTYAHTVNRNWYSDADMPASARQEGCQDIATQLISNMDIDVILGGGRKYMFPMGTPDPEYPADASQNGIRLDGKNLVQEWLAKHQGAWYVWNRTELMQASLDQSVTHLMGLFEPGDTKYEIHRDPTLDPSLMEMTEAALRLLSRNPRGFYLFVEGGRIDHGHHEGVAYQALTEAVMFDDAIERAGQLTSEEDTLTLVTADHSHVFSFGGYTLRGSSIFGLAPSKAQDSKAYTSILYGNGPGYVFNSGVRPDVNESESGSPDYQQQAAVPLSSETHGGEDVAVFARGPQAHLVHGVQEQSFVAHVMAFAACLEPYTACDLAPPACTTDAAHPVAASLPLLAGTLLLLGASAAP
Sequence of Keap1/Nrf2 (Q16236 whole entry): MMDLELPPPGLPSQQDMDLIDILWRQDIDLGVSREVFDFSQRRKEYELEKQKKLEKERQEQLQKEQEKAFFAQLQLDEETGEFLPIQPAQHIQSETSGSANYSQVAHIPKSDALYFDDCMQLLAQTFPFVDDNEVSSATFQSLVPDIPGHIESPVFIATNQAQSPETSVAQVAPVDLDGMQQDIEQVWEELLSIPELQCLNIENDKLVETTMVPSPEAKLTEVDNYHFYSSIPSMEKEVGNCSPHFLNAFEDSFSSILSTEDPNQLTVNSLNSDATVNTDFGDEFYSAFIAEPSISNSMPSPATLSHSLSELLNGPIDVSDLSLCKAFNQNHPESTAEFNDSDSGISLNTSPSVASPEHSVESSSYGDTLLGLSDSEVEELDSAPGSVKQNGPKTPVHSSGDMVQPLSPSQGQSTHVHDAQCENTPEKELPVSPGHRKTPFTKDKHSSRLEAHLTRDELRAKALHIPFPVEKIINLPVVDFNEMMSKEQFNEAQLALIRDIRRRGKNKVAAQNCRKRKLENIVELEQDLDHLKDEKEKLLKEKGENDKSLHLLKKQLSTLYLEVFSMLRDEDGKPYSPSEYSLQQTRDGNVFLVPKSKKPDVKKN
Sequence of Keap1/Nrf2 (Q14145 whole entry): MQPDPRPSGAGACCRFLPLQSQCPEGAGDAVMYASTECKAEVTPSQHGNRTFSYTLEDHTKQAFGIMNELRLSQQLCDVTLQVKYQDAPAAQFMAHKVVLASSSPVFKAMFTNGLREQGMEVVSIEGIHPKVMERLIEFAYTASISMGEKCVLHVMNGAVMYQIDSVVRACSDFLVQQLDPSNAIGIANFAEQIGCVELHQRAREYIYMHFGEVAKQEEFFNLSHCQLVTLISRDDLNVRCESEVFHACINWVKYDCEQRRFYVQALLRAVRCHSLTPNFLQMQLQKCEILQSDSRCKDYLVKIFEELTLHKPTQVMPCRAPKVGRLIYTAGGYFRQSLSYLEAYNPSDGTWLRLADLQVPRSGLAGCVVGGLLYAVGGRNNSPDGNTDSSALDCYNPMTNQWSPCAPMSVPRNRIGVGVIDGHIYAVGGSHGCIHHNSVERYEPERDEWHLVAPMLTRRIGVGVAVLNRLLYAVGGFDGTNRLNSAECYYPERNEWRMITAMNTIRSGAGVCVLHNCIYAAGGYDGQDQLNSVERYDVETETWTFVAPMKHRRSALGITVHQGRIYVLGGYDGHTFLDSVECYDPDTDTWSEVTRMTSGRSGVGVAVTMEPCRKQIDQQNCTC
Sequence of Nonstructural protein 1 (Q194T2 whole entry): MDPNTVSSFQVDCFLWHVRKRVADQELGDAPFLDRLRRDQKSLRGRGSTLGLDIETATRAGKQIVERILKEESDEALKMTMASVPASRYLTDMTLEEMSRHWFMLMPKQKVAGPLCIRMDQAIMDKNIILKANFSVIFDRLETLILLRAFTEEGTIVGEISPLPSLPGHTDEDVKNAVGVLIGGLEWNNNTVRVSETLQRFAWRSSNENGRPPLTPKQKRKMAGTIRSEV
Sequence of Cytochrome P450 2C9 (P11712 whole entry): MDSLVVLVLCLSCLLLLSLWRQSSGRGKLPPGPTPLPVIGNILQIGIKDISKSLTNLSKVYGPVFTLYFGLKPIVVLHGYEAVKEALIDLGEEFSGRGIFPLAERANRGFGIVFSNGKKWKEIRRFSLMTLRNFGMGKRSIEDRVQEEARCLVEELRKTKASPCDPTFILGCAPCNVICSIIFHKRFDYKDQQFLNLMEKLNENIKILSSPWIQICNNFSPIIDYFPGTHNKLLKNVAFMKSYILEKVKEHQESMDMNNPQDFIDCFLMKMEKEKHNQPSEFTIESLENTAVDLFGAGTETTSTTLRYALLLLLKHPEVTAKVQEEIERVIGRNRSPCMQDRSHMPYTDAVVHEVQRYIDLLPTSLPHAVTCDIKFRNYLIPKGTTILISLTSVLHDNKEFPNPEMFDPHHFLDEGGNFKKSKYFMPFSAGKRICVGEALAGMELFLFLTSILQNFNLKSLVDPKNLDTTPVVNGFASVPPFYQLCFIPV
Sequence of Intestinal-type alkaline phosphatase (Mus musculus, UniProt P24822) (P24822 whole entry): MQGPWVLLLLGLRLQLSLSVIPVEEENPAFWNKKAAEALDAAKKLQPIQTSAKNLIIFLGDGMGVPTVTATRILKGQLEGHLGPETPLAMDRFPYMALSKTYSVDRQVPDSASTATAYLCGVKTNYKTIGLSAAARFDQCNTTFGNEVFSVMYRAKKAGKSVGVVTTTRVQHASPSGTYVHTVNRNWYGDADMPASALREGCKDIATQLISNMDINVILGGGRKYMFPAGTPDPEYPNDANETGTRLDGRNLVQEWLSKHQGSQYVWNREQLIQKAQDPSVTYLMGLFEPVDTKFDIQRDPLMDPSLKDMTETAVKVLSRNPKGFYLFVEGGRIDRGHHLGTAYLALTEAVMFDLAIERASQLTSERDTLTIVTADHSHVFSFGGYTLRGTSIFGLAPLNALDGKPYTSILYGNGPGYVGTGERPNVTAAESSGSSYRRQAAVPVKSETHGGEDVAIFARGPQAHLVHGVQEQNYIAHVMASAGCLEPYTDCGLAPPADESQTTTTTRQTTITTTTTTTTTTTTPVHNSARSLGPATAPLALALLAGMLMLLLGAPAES

With CC1=NN(Cc2ccccc2)C(=O)/C1=C\c1ccc(N(C)C)cc1 the IC50 [1] was 35.1 µM (active), the IC50 [2] was 39.4 µM (active) and the IC50 [3] was 16.8 µM (inactive). The IC50 [4] was 32.3 µM (active), the IC50 [5] was 46.7 µM (active) and the EC50 [6] was > 380 µM (inactive). The IC50 [7] was > 100 µM (inactive).

For O=C1CC(c2cccc(Br)c2)C2=C(COC2=O)N1 (stereo not drawn), the AC50 [8] was 85 µM (active).

With O=C(O)c1sccc1SCc1ccc(Cl)cc1Cl the EC50 [9] was > 114 µM (inactive) and the EC50 [10] was 66.9 µM (inactive).

In the case of Cc1cc(C)c[n+](-c2[n-]c(=O)sc2C=NN=C(S)Nc2ccccc2)c1, the EC50 [11] is reported as 9.61 µM (active), the EC50 [12] is reported as 9.02 µM (inconclusive) and the AC50 [13] is reported as 39.6 µM (active).

For CCCn1c(-c2cccs2)nc2c1c(=O)[nH]c(=O)n2Cc1ccccc1, the EC50 [14] was > 99 µM (inactive) and the EC50 [15] was > 99 µM (inactive).

For CNC(=O)CCc1nc(-c2ccccc2)no1, the IC50 [16] was > 80 µM (inactive), the IC50 [17] was > 79 µM (inactive) and the IC50 [18] was > 80 µM (inactive).

For Cc1cc(N2CCCC(O)C2)nc2ccccc12 (stereo not drawn), the IC50 [19] was 9.4 µM (active) and the IC50 [20] was 7.32 µM (active).

In the case of O=C(Cn1nc(-c2ccccc2)c2ccccc21)N1CCc2ccccc2C1, the AC50 [21] is reported as 34.9 µM (active).

In the case of Cc1nn(-c2ccccc2)c(Cl)c1/C=N/NC(=O)c1ccco1, the AC50 [22] is reported as 22.4 µM (inconclusive) and the AC50 [23] is reported as “inconclusive”.

From ChEMBL document CHEMBL1201862, “PubChem BioAssay data set” (2004)
